The source of these data is patent publication US20040224995A1 (University of North Texas Health Science Center at Fort …, priority 2003, published 2004).

Data set [1] concerns γ-glutamyl-cysteine synthetase (GCS) catalytic and regulatory subunits. Description: Western blot of GCS subunits in HT-22 cells. Particulars: compound 24 h before glutamate or H2O2, also independent of glutamate. The class given is cell-based, mouse. As to the method:
Determining γ-glutamylcysteine synthetase (“GCS”) protein levels was determined using Western blotting analysis, as shown in FIGS. 28 and 29. Antibodies against the heavy (catalytic) and light (regulatory) subunits, GCSH and GCSL, respectively, were ordered from Santa Cruz Biotechnology, Santa Cruz, Calif. Anti-β-actin polyclonal antibody was obtained from Biomedical Technologies Inc. (Stoughton, Mass.). Cyclopentenone PGs treated and untreated HT-22, C6, and RGC-5 cells were homogenized in a buffer containing 20 mM HEPES, pH 7.4, 2 mM […], 1 mM EGTA, […], 2 mm DTE, and […] aprotonin. Cells were sonicated to disrupt cell membranes, and Triton X-100 was added to a final concentration of 0.05% to solubilize membrane bound proteins. Equal amounts of proteins, as determined by the Bradford method, were separated by SDS-PAGE and transferred to polyvinylidene fluoride membrane (Millipore, Bedford, Mass.) in a BiORad (Hercules, Calif.) trans-Blot electrophoresis apparatus at 100 V for 2 hr using Towbin's buffer [25 mm Tris, pH 8.3, 192 mM glycine, and 20% methanol]. […] Equal amounts of proteins, as determined by the Bradford method, were separated by SDS-PAGE and transferred to PVDF membrane. […] […]

Data set [2] concerns HT-22 cells. The data set is described as follows: HT-22 serum deprivation toxicity. The class given is cell-based, mouse. Particulars: for protection against serum deprivation: 24 h in 10% FBS with compound, then about 12 h serum free medium; for concentration enhancing serum deprivation-induced toxicity: HT-22. The protocol:
The effects of pretreatment of HT-22 cells with PPARγ agonists on serum deprivation toxicity were also studied. We examined whether 15d-PGJ2 or troglitazone have neuroprotective activity against serum deprivation toxicity. HT-22 cells were incubated for 24 hours in 10% FBS medium containing either 15d-PGJ2 or troglitazone. Then, cells were exposed for about 12 hours to a serum free medium with both of the compounds present. […] In addition, 15d-PGJ2 and troglitazone enhanced the serum deprivation-induced toxicity at or above 10 μM and 20 μM, respectively.
The WY-14643, Ciglitazone, Troglitazone, 9-cis retinoic acid, and 15d-PGJ2 compounds were purchased from Biomol (Plymouth Meeting, Pa.). L-165041 and L-783483 were kindly provided by Merck Laboratories. The cell lines used were HT-22, an immortalized mouse hippocampal cell line, and SK—N—SH, a human neuroblastoma cell line. The HT-22 cells were obtained from David Schubert (Salk Institute, San Diego, Calif.). The HT-22 line was originally selected from HT-4 cells based on glutamate sensitivity. HT-4 cells were immortalized from primary hippocampal neurons using a temperature-sensitive SV-40 T antigen (Morimoto and Koshland, 1990). SK—N—SH were obtained from ATCC (Manassas, Va.). HT-22 and SK—N—SH cells were grown to confluence in DMEM and RPMI-1640 media, respectively, and supplemented with 10% charcoal/dextran-treated fetal bovine serum (FBS), and 5 mg/ml gentamycin at 37° C. under 95% air, 5% CO2. HT-22 cells were plated at a density of 50,000 cells/ml (5,000 cells/well), and SK—N—SH were plated at a density of 120,000 to 150,000 cells/ml (12,000 to 15,000 cells/well) in 96-well plates. In most studies, wells were pre-treated with PPAR ligands over a wide dose range at various times prior to being subjected to either glutamate, hydrogen peroxide (H2O2), or serum deprivation insults. In some studies, the insults were applied prior to the addition of the PPAR ligand.
The cell viability assays were conducted about 14 to 24 hours post-insult time, viability of cells was determined using 2.5 μM Calcein AM assay in phosphate-buffered saline (PBS). After 25 minutes of incubation, live cells were distinguished by the presence of intracellular esterase activity, which cleaves the calcein AM dye, producing a bright green fluorescence. Viability was measured in Relative Fluorescent Units (“RFU”), and expressed as percentage of vehicle-treated control values. The calcein assay was designed to produce results that accurately reflect viable cell numbers. At cell concentrations below 10,000 cells per well (96-well plate) a linear relationship between RFU and cell number is achieved (r^2=0.9997, data not shown).

SMILES strings stand for the structures.

As for `CCCCC/C=C/C=C1/C(=O)C=C[C@@H]1C/C=C\CCCC(=O)O` [15d-PGJ2, 15-deoxy-Δ^12,14-PGJ2], the “expression of catalytic (C) and regulatory (R) subunits of GCS” value in data set [1] is reported as “upregulates”. Moreover, in data set [2], the “protection against serum deprivation” value is “failed to protect” and the “concentration enhancing serum deprivation-induced toxicity” value was at least 10 µM.

As to `Cc1c(C)c2c(c(C)c1O)CCC(C)(COc1ccc(CC3SC(=O)NC3=O)cc1)O2` (centres unmarked) [troglitazone], in data set [2], the “protection against serum deprivation” value is on record as “failed to protect” and the “concentration enhancing serum deprivation-induced toxicity” value was at least 20 µM.
